Values of other authors as cited in US20050255458A1, “Drug discovery assays based on the biology of chronic disease” (priority 2002, published 2005).
Read-outs that look alike come from different tables or passages of the source.

Tests used:
HSV-1 = conditions: cited from earlier work
tissue factor (TF) gene = conditions: cited from earlier work
TF promoter = conditions: cited from earlier work
ERK [1] = conditions: cited from earlier work
Elk-1 = conditions: Peterziel 1999; cited from earlier work
AR gene = conditions: cited from earlier work
[2] = tested on: hair follicles (onset of anagen); conditions: topical 10 nmol twice weekly, female CD-1 mice; cited from earlier work
sebocytes = conditions: 10^−6 M, cited from earlier work
[3] = tested on: AU565 breast carcinoma cells; conditions: cited from earlier work
[4] = tested on: ML-1 human myeloblastic leukemic cells; conditions: cited from earlier work
endogenous AR gene = conditions: 10^−8 M, cited from earlier work
NF-κB [5] = conditions: cited from earlier work
DC = conditions: inhaled; cited from earlier work
GABP = conditions: Ojuka 2003; cited from earlier work
TF [6] = conditions: cited from earlier work
TF [7] = conditions: cited from earlier work; remark: listed apart in the source
ACE = target: T1, ACE (Mesocricetus auratus, UniProt Q50JE5); conditions: cited from earlier work
T1 construct: from tissue; host or cells: whole animal, in vivo (hamster)
T1 sequence (Q50JE5 36-1314): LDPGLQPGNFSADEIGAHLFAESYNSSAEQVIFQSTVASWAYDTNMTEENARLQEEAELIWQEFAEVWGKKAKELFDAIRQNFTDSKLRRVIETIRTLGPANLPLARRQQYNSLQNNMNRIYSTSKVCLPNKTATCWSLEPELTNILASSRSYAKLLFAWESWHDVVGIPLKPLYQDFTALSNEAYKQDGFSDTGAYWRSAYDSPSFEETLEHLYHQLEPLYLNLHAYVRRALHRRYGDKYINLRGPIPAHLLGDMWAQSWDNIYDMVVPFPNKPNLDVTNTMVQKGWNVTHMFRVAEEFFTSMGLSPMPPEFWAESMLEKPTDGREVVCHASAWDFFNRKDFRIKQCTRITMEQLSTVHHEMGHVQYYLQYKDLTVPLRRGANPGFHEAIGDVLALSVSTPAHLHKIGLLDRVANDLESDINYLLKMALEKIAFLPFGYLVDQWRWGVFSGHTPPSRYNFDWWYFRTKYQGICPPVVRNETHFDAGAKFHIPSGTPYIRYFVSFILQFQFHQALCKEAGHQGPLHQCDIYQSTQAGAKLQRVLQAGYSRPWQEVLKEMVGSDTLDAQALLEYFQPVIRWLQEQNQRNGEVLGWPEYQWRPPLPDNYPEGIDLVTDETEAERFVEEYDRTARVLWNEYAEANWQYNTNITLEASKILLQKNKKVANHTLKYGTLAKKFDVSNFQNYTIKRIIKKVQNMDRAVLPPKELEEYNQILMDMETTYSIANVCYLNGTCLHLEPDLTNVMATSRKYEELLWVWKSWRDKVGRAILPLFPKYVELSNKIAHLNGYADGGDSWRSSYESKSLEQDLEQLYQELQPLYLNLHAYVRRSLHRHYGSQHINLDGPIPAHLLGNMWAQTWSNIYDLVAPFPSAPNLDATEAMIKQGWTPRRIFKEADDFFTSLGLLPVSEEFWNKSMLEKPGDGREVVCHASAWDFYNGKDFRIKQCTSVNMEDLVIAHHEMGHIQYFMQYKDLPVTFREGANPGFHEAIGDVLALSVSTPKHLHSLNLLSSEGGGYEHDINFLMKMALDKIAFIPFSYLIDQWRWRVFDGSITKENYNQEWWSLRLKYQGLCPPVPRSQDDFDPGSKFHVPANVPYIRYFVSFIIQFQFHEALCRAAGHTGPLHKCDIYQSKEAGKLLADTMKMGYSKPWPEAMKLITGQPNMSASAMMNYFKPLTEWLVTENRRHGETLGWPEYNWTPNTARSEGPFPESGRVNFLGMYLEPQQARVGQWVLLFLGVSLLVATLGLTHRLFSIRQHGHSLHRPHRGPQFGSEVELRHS

[8] = tested on: hamsters on a high-cholesterol diet; conditions: 8 weeks, cited from earlier work
ERK [9] = conditions: cited from earlier work; remark: listed apart in the source
[10] = tested on: abdominal subcutaneous adipocytes; conditions: obese vs non-obese (Hellstrom 2000); cited from earlier work
[11] = cited from earlier work
NF-κB [12] = conditions: various cells and tissues; cited from earlier work
[13] = drinking water, 4 months, vs untreated obese (fa/fa); cited from earlier work
MDAY-D2 tumor = conditions: 500 μg daily s.c., cited from earlier work

## Nc1nc2c(ncn2COCCO)c(=O)[nH]1 [ACV, aciclovir]
HSV-1; 7 days from first day post infection, day 44, relative to IgG
  copy number of latent HSV-1 genomes: decreased the copy number of latent HSV-1 genomes

## CC1=C(/C=C/C(C)=C/C=C/C(C)=C/C(=O)O)C(C)(C)CCC1 [ATRA, all-trans retinoic acid]
Tissue factor (TF) gene; 10^−5 mol/L, 30 minutes
  TF mRNA: decrease in TF mRNA
  binding of c-Fos/c-Jun, c-Rel/p65 and Sp1 to their sites: no change in binding
Tissue factor (TF) gene; LPS 10 μg/ml 1 hour, ATRA 10^−5 mol/L 30 minutes before LPS
  rate of TF transcription (run-on): decreased TF transcription
TF promoter; 30-minute ATRA before 5-hour LPS
  LPS induced increase in LUC transcription: no decrease
TF promoter; ATRA 10^−5 mol/L, 30 minutes, vs untreated
  LUC activity: no decrease in LUC activity

## C[C@]12CCC(=O)C[C@@H]1CC[C@@H]1[C@@H]2CC[C@]2(C)[C@@H](O)CC[C@@H]12 [DHT, Dihydrotestosterone]
ERK [1]; LNCaP or PC-3 cells (Guo 2000)
  ERK phosphorylation: no increase in ERK phosphorylation
ERK [1]; LNCaP
  Effect on [ERK^phos]: ↑[ERK^phos]
ERK [1]; primary genital skin fibroblasts
  Effect on [ERK^phos]: ↑[ERK^phos]
ERK [1]; primary prostatic stormal cells
  Effect on [ERK^phos]: ↑[ERK^phos]
Elk-1
  Elk-1 transcription activity: increase in Elk-1 transcription activity
AR gene; LNCaP
  AR mRNA half life: Increased mRNA half life
  AR transcription in run-on assays: Decreased transcription
  Effect on [mRNAAR]: ↓[mRNAAR]
AR gene; MDA453
  AR mRNA half life: Decreased mRNA half life
  AR transcription in run-on assays: No change in run-on
  Effect on [mRNAAR]: ↓[mRNAAR]
[2]
  delay in hair regrowth: 3-4 week
sebocytes; vs untreated
  decrease in DNA synthesis (^3H-thymidine uptake): 40%
sebocytes; statistically insignificant
  sebocyte differentiation (lipid accumulation): small increase

## CC(=O)OCC(CCn1cnc2cnc(N)nc21)COC(C)=O [FCV, famciclovir]
HSV-1; 9-10 days treatment early in infection
  establishment of viral latency: effective in limiting the establishment of viral latency

## COc1cccc(-c2cc(=O)c3ccccc3o2)c1N [PD98059]
[3]; 0-10 μM PD98059
  effect on HRGβ1-induced cell growth arrest: dose-dependently reversed
[3]; HRGβ1 alone, PD98059 as pretreatment
  cell differentiation: dose-dependently inhibited
[4]; 10 μM PD98059 with 0.3 ng/ml TPA
  ML-1 proliferation with TPA: continued to proliferate
[4]; 1 h
  decrease in TPA-stimulated ERK2 activity: 2 fold
[4]; 3 h
  decrease in TPA-stimulated ERK2 activity: 10 fold

## C[C@]1(O)CC[C@H]2[C@@H]3CCC4=CC(=O)CCC4=C3C=C[C@@]21C [R1881, methyltrienolone]
Endogenous AR gene; 8 hours
  transcription of endogenous AR gene: 85 % of control
Endogenous AR gene; 24 hours
  transcription of endogenous AR gene: 73 % of control
ERK [1]; PMC42 human breast cancer cells
  Effect on [ERK^phos]: ↑[ERK^phos]
AR gene; LNCaP
  Effect on [mRNAAR]: ↓[mRNAAR]

## CCC(=O)OCC(=O)[C@@]1(OC(=O)CC)[C@@H](C)C[C@H]2[C@@H]3CCC4=CC(=O)C=C[C@]4(C)[C@@]3(Cl)[C@@H](O)C[C@@]21C [beclomethasone dipropionate]
NF-κB [5]
  NF-κB activation: decreases NF-κB activation
DC
  number of DC in asthma: decreased the excessive number of DCs in asthma

## Cn1c(=O)c2c(ncn2C)n(C)c1=O [caffeine]
GABP
  GABP binding to the N-box: increase of GABP binding

## C[C@H](CS)C(=O)N1CCC[C@H]1C(=O)O [captopril]
TF [6]; 20 μg/mL
  nuclear translocation of c-Rel/p65 induced by endotoxin: almost completely inhibited
TF [6]; dose-dependent
  TF activity: decreased TF activity
TF [7]
  level of TF antigen and mRNA in the cultured cells: decreased the level of TF antigen and mRNA
ACE; 100 mg/kg/day, 6 weeks, vs week 3 and 4
  decrease in HDL: 24%
ACE; 100 mg/kg/day, after 6 weeks of treatment
  number of subendothelial macrophage derived foam cells: 52±9 cell/mm^2
ACE; after 6 weeks of treatment
  area of extracellular lipid particles: 157±36 μm2×1,000
  area of fatty streak: 55±12 μm2×1,000
  average size of a foam cell: 89±5 μm^2
[8]
  cell size of macrophage derived foam cells: did not change the cell size
  decrease of fatty streak area: 35%
  heart rate: 348±6 beats/min
  mean arterial pressure: 110±5 mm Hg
  subendothelial number of macrophage derived foam cells in the aortic arch: 108±10 cells/mm^2
[8]; pravastatin 34, captopril 100 mg/kg/day
  plasma total cholesterol: did not change plasma lipids

## O=C1CN(/N=C/c2ccc(-c3ccc([N+](=O)[O-])cc3)o2)C(O)=N1 [dantrolene]
GABP
  GABP binding to the N-box: prevented the effect

## CCCC(=O)Nc1ncnc2c1ncn2[C@@H]1O[C@@H]2COP(=O)(O)O[C@H]2[C@H]1OC(=O)CCC [dibutyryl cAMP, dibutyryl cyclic AMP]
ERK [9]; adipocytes
  ERK activation: activated ERK
[10]
  decrease in maximum induced glycerol release: 50%

## Nc1nc(O)c2ncn(COC(CO)CO)c2n1 [ganciclovir, Ganciclovir]
[11]; 28 days prophylaxis, follow-up 4.7±1.3 years
  actuarial incidence of TxCAD: 43±8%
[11]; CMV seronegative recipients, 14 patients
  patients who developed TxCAD: 28%

## CC(C)NCC(O)c1ccc(O)c(O)c1 (stereo not drawn) [isoprenaline]
ERK [9]; CHO/K1 cells expressing the human β3AR
  ERK activation: activated ERK
ERK [9]; adipocytes
  ERK activation: activated ERK
[10]
  decrease in maximum induced glycerol release: 50%

## CC[C@H](C)C(=O)O[C@H]1CCC=C2C=C[C@H](C)[C@H](CC[C@@H]3C[C@@H](O)CC(=O)O3)[C@H]21 [mevastatin]
NF-κB [12]
  NF-κB activation: inhibited NF-κB activation

## O=C(O)C[C@H](O)C[C@H](O)/C=C/c1c(C2CC2)nc2ccccc2c1-c1ccc(F)cc1 [pitavastatin]
NF-κB [12]
  NF-κB activation: inhibited NF-κB activation

## [Na+].[Na+].[Na+].[O]=[V]([O-])([O-])[O-] [sodium orthovanadate]
[13]
  decrease in body weight: 43%
MDAY-D2 tumor; day 14, 11 mice with tumors
  tumor weights: 0.08 to 0.47 g
MDAY-D2 tumor
  decrease in tumor growth: more than 85%
